Experimental data reported in article PMC9921851, “Synthesis and Preclinical Evaluation of Three Novel ^68Ga-Labeled Bispecific PSMA/FAP-Targeting Tracers for Prostate Cancer Imaging” (Molecules, 2023).

How the values were obtained:
[1] = system: PSMA-expressing LNCaP tumor xenografts; experiment: Ex vivo biodistribution in LNCaP tumor-bearing mice; conditions: LNCaP tumor-bearing mice, 1 h post injection, mean ± SD, n = 4
Experimental: Biodistribution studies were conducted at 1 h post injection with ^68Ga-labeled AV01017, AV01030, AV01038, HTK03041, and FAPI-04 in LNCaP tumor-bearing mice (Figure 5 and Table S4, Supplementary Materials). The results were consistent with the observation from their PET images. Tumor uptake values for [^68Ga]Ga-AV01017, [^68Ga]Ga-AV01030, [^68Ga]Ga-AV01038, [^68Ga]Ga-HTK03041, and [^68Ga]Ga-FAPI-04 were 4.38 ± 0.55, 5.17 ± 0.51, 4.25 ± 0.86, 23.1 ± 6.11, and 3.15 ± 1.43 %ID/g, respectively. […] Although not statistically significant, the bispecific tracers with a longer linker tend to have a higher blood uptake value (9.24 ± 1.55 %ID/g for [^68Ga]Ga-AV01017; 7.07 ± 0.31%ID/g for [^68Ga]Ga-AV01038; 5.75 ± 0.59 %ID/g for [^68Ga]Ga-AV01030) and a lower tumor-to-blood ratio (0.48 ± 0.11 for [^68Ga]Ga-AV01017; 0.60 ± 0.13 for [^68Ga]Ga-AV01038; 0.89 ± 0.03 for [^68Ga]Ga-AV01030).
(§1) Imaging and biodistribution studies were performed using male NOD.Cg-Rag1tm1Mom Il2rgtm1Wjl/SzJ (NRG) mice following previously published procedures. The experiments were conducted according to the guidelines established by the Canadian Council on Animal Care and approved by Animal Ethics Committee of the University of British Columbia. The mice were briefly sedated by inhalation of 2.5% isoflurane in oxygen, and 100 µL LNCaP (2 × 10^5 cells) or HEK293T:hFAP (8.5 × 10^6 cells) cells were inoculated subcutaneously behind the left shoulder. When the tumor grew to 5–8 mm in diameter over 3–4 weeks and 4–5 weeks for HEK293T:hFAP and LNCaP tumors, respectively, the mice were used for PET/CT imaging and biodistribution studies.
(§2) For biodistribution studies, the mice were injected with the radiotracer (~2–4 MBq) as described above. At 1 h post injection, the mice were euthanized by CO2 inhalation. Blood was withdrawn by cardiac puncture, and organs/tissues of interest were collected, weighed, and counted using a Perkin Elmer (Waltham, MA, USA) Wizard2 2480 automatic gamma counter.

[2] = system: FAP-expressing HEK293T:hFAP tumor xenografts; experiment: Ex vivo biodistribution in HEK293T:hFAP tumor-bearing mice; conditions: 1 h post injection, mean ± SD, n = 4
Experimental: Biodistribution studies were also conducted at 1 h post injection with [^68Ga]Ga-AV01017, [^68Ga]Ga-AV01030, [^68Ga]Ga-AV01038, [^68Ga]Ga-HTK03041, and [^68Ga]Ga-FAPI-04 in HEK293T:hFAP tumor-bearing mice (Figure 6 and Table S5, Supplementary Materials). Tumor uptake values for [^68Ga]Ga-AV01017, [^68Ga]Ga-AV01030, [^68Ga]Ga-AV01038, [^68Ga]Ga-HTK03041, and [^68Ga]Ga-FAPI-04 were 2.99 ± 0.37, 3.69 ± 0.81, 3.64 ± 0.83, 0.62 ± 0.19, and 12.5 ± 2.00 %ID/g, respectively. There was a very low tumor uptake in mice injected with [^68Ga]Ga-HTK03041, showing very minimal FAP expression in this tumor model. The uptake levels of these tracers on the major organs and tissues are consistent with the trends observed in the LNCaP tumor-baring mice (Figure 5 and Supplemental Table S4).
as §1, §2

`N#C[C@@H]1CC(F)(F)CN1C(=O)CNC(=O)c1ccnc2ccc(OCc3cn(CC(=O)N[C@@H](CCCCNC(=O)CN4CCN(CC(=O)[O-])CCN(CC(=O)[O-])CCN(CC(=O)[O-])CC4)C(=O)NCC(=O)NC[C@H]4CC[C@H](C(=O)N[C@@H](Cc5c6ccccc6cc6ccccc56)C(=O)NCCCC[C@H](NC(=O)N[C@@H](CCC(=O)O)C(=O)O)C(=O)O)CC4)nn3)cc12.[68Ga+3]` [[^68Ga]Ga-AV01038] gave an Adrenal glands uptake [1] of 3.69 ± 2.54 %ID/g, a Blood uptake [1] of 7.07 ± 0.31 %ID/g and a Bone uptake [1] of 4.64 ± 1.70 %ID/g. The Brain uptake [1] was 0.15 ± 0.02 %ID/g, the Fat uptake [1] was 1.01 ± 0.28 %ID/g and the Heart uptake [1] was 3.26 ± 0.24 %ID/g. The Kidneys uptake [1] was 40.5 ± 8.26 %ID/g, the LNCaP tumor uptake [1] was 4.25 ± 0.86 %ID/g and the Lacrimal glands uptake [1] was 0.06 ± 0.13 %ID/g. For the same molecule, the “Large Intestine uptake” value [1] was 1.65 ± 0.31 %ID/g, the Liver uptake [1] was 2.06 ± 0.13 %ID/g and the Lungs uptake [1] was 3.74 ± 0.78 %ID/g. It also gave a Muscle uptake [1] of 1.68 ± 0.21 %ID/g, a Pancreas uptake [1] of 3.91 ± 0.20 %ID/g and a Salivary glands uptake [1] of 6.41 ± 1.19 %ID/g. For the same molecule, the Seminal vesicle uptake [1] was 1.51 ± 0.08 %ID/g, the “Small Intestine uptake” value [1] was 2.12 ± 0.24 %ID/g and the Spleen uptake [1] was 6.77 ± 4.86 %ID/g. The Stomach uptake [1] was 0.64 ± 0.11 %ID/g, the Testes uptake [1] was 1.04 ± 0.10 %ID/g and the Thyroid uptake [1] was 11.1 ± 1.62 %ID/g. The Tumor/blood uptake ratio [1] was 0.60 ± 0.13, the Tumor/bone uptake ratio [1] was 0.97 ± 0.30 and the Tumor/kidney uptake ratio [1] was 0.10 ± 0.02. The Tumor/muscle uptake ratio [1] was 2.52 ± 0.33, the Adrenal glands uptake [2] was 6.14 ± 3.79 %ID/g and the Blood uptake [2] was 7.45 ± 1.70 %ID/g. For the same molecule, the Bone uptake [2] was 3.03 ± 1.12 %ID/g, the Brain uptake [2] was 0.13 ± 0.02 %ID/g and the Fat uptake [2] was 0.53 ± 0.10 %ID/g. The “HEK293T:hFAP tumor uptake” value [2] was 3.64 ± 0.83 %ID/g, the Heart uptake [2] was 2.69 ± 0.22 %ID/g and the Kidneys uptake [2] was 25.0 ± 1.76 %ID/g. The Lacrimal gland uptake [2] was 0.22 ± 0.16 %ID/g, the “Large Intestine uptake” value [2] was 0.99 ± 0.17 %ID/g and the Liver uptake [2] was 2.16 ± 0.33 %ID/g. For the same molecule, the Lungs uptake [2] was 3.83 ± 0.55 %ID/g, the Muscle uptake [2] was 1.23 ± 0.11 %ID/g and the Pancreas uptake [2] was 3.82 ± 1.29 %ID/g. The Salivary glands uptake [2] was 4.02 ± 0.69 %ID/g, the Seminal vesicle uptake [2] was 1.15 ± 0.69 %ID/g and the “Small Intestine uptake” value [2] was 1.70 ± 0.19 %ID/g. For the same molecule, the Spleen uptake [2] was 5.47 ± 1.03 %ID/g, the Stomach uptake [2] was 0.60 ± 0.18 %ID/g and the Testes uptake [2] was 0.74 ± 0.09 %ID/g. For the same molecule, the Thyroid uptake [2] was 6.51 ± 1.07 %ID/g, the Tumor/blood uptake ratio [2] was 0.49 ± 0.37 and the Tumor/bone uptake ratio [2] was 1.17 ± 0.40. It also gave a Tumor/kidney uptake ratio [2] of 0.11 ± 0.02 and a Tumor/muscle uptake ratio [2] of 2.21 ± 0.17.
